In patent US10323038B2, “Pyrazole compounds and methods of making and using same” (ABIDE THERAPEUTICS, INC., priority 2015, dated 2019) one finds IC50 and inhibition data, which are given here for 16 compounds.

For assay [1], the target named is FAAH (Mus musculus (Mouse), UniProt O08914). Put plainly: In vitro competitive activity-based protein profiling, FAAH (mouse). Format: biochemical. As to conditions: for inhibition at 1 µM: read-out: FAAH % inh. 1 μM (mouse). An outline of the steps:
(§1)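 Residual MAGL and FAAH activity quantified from fluorescent gel bands after SDS-PAGE. Before that, FP-Rh or HT-01 probe (50 μM stock) labelled for 30 min at 37 °C, following 30 min inhibitor preincubation. Mouse assays used brain membrane fraction or cell lysates, human used prefrontal cortex or cell membranes, all at 1.0 mg/mL protein.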

Assay [2] has as its target MAGL (Mus musculus (Mouse), UniProt O35678). Put plainly: In vitro competitive activity-based protein profiling, MAGL (mouse). The class given is biochemical. As to conditions: for inhibition at 1 µM: read-out: MAGL % inh. 1 μM (mouse). An outline of the steps:
as §1

The structures appear in SMILES notation.

Chain of MAGL (O35678 whole entry): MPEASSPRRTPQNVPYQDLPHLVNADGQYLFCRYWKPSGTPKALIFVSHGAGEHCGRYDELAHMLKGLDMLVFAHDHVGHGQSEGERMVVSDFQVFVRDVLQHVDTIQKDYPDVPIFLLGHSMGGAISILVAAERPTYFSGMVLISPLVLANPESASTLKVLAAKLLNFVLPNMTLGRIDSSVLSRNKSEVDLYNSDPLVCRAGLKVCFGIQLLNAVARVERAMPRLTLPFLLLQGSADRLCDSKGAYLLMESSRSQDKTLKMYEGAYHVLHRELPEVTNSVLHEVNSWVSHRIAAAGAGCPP
Chain of FAAH (O08914 whole entry): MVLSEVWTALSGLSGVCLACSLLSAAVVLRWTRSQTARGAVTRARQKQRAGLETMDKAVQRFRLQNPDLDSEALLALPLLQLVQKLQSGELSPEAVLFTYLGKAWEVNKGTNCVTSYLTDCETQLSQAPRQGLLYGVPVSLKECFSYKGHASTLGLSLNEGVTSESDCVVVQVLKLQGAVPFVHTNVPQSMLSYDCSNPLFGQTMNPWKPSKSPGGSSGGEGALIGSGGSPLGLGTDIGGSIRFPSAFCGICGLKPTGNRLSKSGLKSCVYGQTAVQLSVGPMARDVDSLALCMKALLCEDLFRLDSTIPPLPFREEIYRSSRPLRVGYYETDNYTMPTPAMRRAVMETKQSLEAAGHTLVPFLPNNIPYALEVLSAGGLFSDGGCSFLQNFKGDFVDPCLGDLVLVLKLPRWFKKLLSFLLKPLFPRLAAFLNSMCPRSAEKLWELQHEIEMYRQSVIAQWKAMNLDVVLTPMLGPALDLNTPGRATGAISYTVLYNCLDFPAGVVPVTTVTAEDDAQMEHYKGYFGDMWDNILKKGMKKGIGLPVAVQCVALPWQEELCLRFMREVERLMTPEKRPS

Turning to `CC(=O)N(C)c1cnn(C(=O)N2CC3CN(Cc4cccc(Cl)c4C)CC3C2)c1` (stereo not drawn) [Example 103, N-(1-(5-(3-chloro-2-methylbenzyl)octahydropyrrolo[3,4-c]pyrrole-2-carbonyl)-1H-pyrazol-4-yl)-N-methylacetamide], in assay [1], the IC50 is at most 100 nM and the inhibition at 1 µM was at least 75%. Besides, in assay [2], the IC50 is at most 100 nM and the inhibition at 1 µM was at least 75%.
For the compound `CC(=O)N(C)c1cnn(C(=O)N2CC3CN(Cc4cc(Cl)ccc4C(F)(F)F)CC3C2)c1` (stereo not drawn) [Example 104, N-(1-(5-(5-chloro-2-(trifluoromethyl)benzyl)octahydropyrrolo[3,4-c]pyrrole-2-carbonyl)-1H-pyrazol-4-yl)-N-methylacetamide], the inhibition at 1 µM in assay [1] and in assay [2] was at least 75% throughout.
Take `CC(=O)N(C)c1cnn(C(=O)N2CC3CN(Cc4cc(Cl)cc(Cl)c4)CC3C2)c1` (stereo not drawn) [Example 105, N-(1-(5-(3,5-dichlorobenzyl)octahydropyrrolo[3,4-c]pyrrole-2-carbonyl)-1H-pyrazol-4-yl)-N-methylacetamide]: in assay [1], the IC50 was at most 100 nM and the inhibition at 1 µM was at least 75%. In addition, in assay [2], the IC50 is at most 100 nM and the inhibition at 1 µM was at least 75%.
As to `CC(=O)N(C)c1cnn(C(=O)N2CC3CN(Cc4cc(C(F)(F)F)ccc4Cl)CC3C2)c1` (stereo not drawn) [Example 106, N-(1-(5-(2-chloro-5-(trifluoromethyl)benzyl)octahydropyrrolo[3,4-c]pyrrole-2-carbonyl)-1H-pyrazol-4-yl)-N-methylacetamide], the inhibition at 1 µM in assay [1] and in assay [2] was at least 75% throughout.
`CC(=O)N(C)c1cnn(C(=O)N2CC3CN(Cc4cccc(Cl)c4Cl)CC3C2)c1` (stereo not drawn) [Example 107, N-(1-(5-(2,3-dichlorobenzyl)octahydropyrrolo[3,4-c]pyrrole-2-carbonyl)-1H-pyrazol-4-yl)-N-methylacetamide]: in assay [1], the IC50 is at most 100 nM and the inhibition at 1 µM is at least 75%. In addition, in assay [2], the IC50 is at most 100 nM and the inhibition at 1 µM is at least 75%.
Take `CC(=O)N(C)c1cnn(C(=O)N2CC3CN(Cc4cc(C)cc(C)c4)CC3C2)c1` (stereo not drawn) [Example 108, N-(1-(5-(3,5-dimethylbenzyl)octahydropyrrolo[3,4-c]pyrrole-2-carbonyl)-1H-pyrazol-4-yl)-N-methylacetamide]: the IC50 in assay [1] was at most 100 nM; in assay [2] it was 100 to 1000 nM. For the same compound, the inhibition at 1 µM in assay [1] and in assay [2] was at least 75% throughout.
As for `CC(=O)N(C)c1cnn(C(=O)N2CC3CN(Cc4cc(Cl)ccc4Cl)CC3C2)c1` (stereo not drawn) [Example 109, N-(1-(5-(2,5-dichlorobenzyl)octahydropyrrolo[3,4-c]pyrrole-2-carbonyl)-1H-pyrazol-4-yl)-N-methylacetamide], in assay [1], the IC50 was at most 100 nM and the inhibition at 1 µM was at least 75%. In assay [2], the IC50 was at most 100 nM and the inhibition at 1 µM was at least 75%.
As to `CC(=O)N(C)c1cnn(C(=O)N2CC3CN(Cc4cc(Cl)cc(N5CCCC5)c4)CC3C2)c1` (stereo not drawn) [Example 110, N-(1-(5-(3-chloro-5-(pyrrolidin-1-yl)benzyl)octahydropyrrolo[3,4-c]pyrrole-2-carbonyl)-1H-pyrazol-4-yl)-N-methylacetamide], in assay [1], the IC50 was at most 100 nM and the inhibition at 1 µM is at least 75%. Further, in assay [2], the IC50 was at most 100 nM and the inhibition at 1 µM is at least 75%.
For `CC(=O)N(C)c1cnn(C(=O)N2CC3CN(Cc4c(Cl)cccc4Cl)CC3C2)c1` (stereo not drawn) [Example 111, N-(1-(5-(2,6-dichlorobenzyl)octahydropyrrolo[3,4-c]pyrrole-2-carbonyl)-1H-pyrazol-4-yl)-N-methylacetamide], in assay [1], the IC50 is at most 100 nM and the inhibition at 1 µM was at least 75%. Moreover, in assay [2], the IC50 was at most 100 nM and the inhibition at 1 µM is at least 75%.
Take `CC(=O)N(C)c1cnn(C(=O)N2CC3CN(Cc4cc(N5CCCC5)cc(C(F)(F)F)c4)CC3C2)c1` (stereo not drawn) [Example 112, N-methyl-N-(1-(5-(3-(pyrrolidin-1-yl)-5-(trifluoromethyl)benzyl)octahydropyrrolo[3,4-c]pyrrole-2-carbonyl)-1H-pyrazol-4-yl)acetamide]: in assay [1], the IC50 was at most 100 nM and the inhibition at 1 µM is at least 75%. In addition, in assay [2], the IC50 is at most 100 nM and the inhibition at 1 µM was at least 75%.
For the compound `CC(=O)N(C)c1cnn(C(=O)N2CC3CN(Cc4ccc(Cl)cc4Cl)CC3C2)c1` (stereo not drawn) [Example 113, N-(1-(5-(2,4-dichlorobenzyl)octahydropyrrolo[3,4-c]pyrrole-2-carbonyl)-1H-pyrazol-4-yl)-N-methylacetamide], in assay [1], the IC50 is at most 100 nM and the inhibition at 1 µM is at least 75%. Also, in assay [2], the IC50 is at most 100 nM and the inhibition at 1 µM was at least 75%.
Consider `CC(=O)N(C)c1cnn(C(=O)N2CC3CN(Cc4cc(N5CCOCC5)cc(C(F)(F)F)c4)CC3C2)c1` (stereo not drawn) [Example 114, N-methyl-N-(1-(5-(3-morpholino-5-(trifluoromethyl)benzyl)octahydropyrrolo[3,4-c]pyrrole-2-carbonyl)-1H-pyrazol-4-yl)acetamide], for which, in assay [1], the IC50 was at most 100 nM and the inhibition at 1 µM was at least 75%. In assay [2], the IC50 is at most 100 nM and the inhibition at 1 µM is at least 75%.
In the case of `CC(=O)N(C)c1cnn(C(=O)N2CC3CN(Cc4ccc(C)cc4Cl)CC3C2)c1` (stereo not drawn) [Example 115, N-(1-(5-(2-chloro-4-methylbenzyl)octahydropyrrolo[3,4-c]pyrrole-2-carbonyl)-1H-pyrazol-4-yl)-N-methylacetamide], the IC50 in assay [1] and in assay [2] was at most 100 nM in each case. In addition, the inhibition at 1 µM in assay [1] and in assay [2] was at least 75% each time.
Regarding `CC(=O)N(C)c1cnn(C(=O)N2CC3CN(Cc4cc(C(F)(F)F)cc(C(F)(F)F)c4)CC3C2)c1` (stereo not drawn) [Example 116, N-(1-(5-(3,5-bis(trifluoromethyl)benzyl)octahydropyrrolo[3,4-c]pyrrole-2-carbonyl)-1H-pyrazol-4-yl)-N-methylacetamide], the IC50 in assay [1] and in assay [2] was at most 100 nM each time. Also, the inhibition at 1 µM in assay [1] and in assay [2] was at least 75% throughout.
For the compound `CC(=O)N(C)c1cnn(C(=O)N2CC3CN(Cc4cccc(C(F)(F)F)c4)CC3C2)c1` (stereo not drawn) [Example 117, N-methyl-N-(1-(5-(3-(trifluoromethyl)benzyl)octahydropyrrolo[3,4-c]pyrrole-2-carbonyl)-1H-pyrazol-4-yl)acetamide], in assay [1], the IC50 is at most 100 nM and the inhibition at 1 µM is at least 75%. In addition, in assay [2], the IC50 was at most 100 nM and the inhibition at 1 µM is at least 75%.
On to `CC(=O)N(C)c1cnn(C(=O)N2CC3CN(Cc4cc(Cl)cc(N5CC6COCC6C5)c4)CC3C2)c1` (stereo not drawn) [Example 118, N-(1-(5-(3-chloro-5-(tetrahydro-1H-furo[3,4-c]pyrrol-5(3H)-yl)benzyl)octahydropyrrolo[3,4-c]pyrrole-2-carbonyl)-1H-pyrazol-4-yl)-N-methylacetamide], for which the IC50 in assay [1] and in assay [2] was at most 100 nM throughout. The inhibition at 1 µM in assay [1] and in assay [2] was at least 75% throughout.
